Test results from patent US11274101B2, “Heterocyclic compound” (Takeda Pharmaceutical Company Limited, priority 2017, dated 2022).

Biological target: T1, His-hMAGL (recombinant polyhistidine tagged human MAGL protein) (Homo sapiens, UniProt Q99685)
T1 construct: made in house; host or cells: E. coli BL21(DE3)
T1 sequence (Q99685 1-303): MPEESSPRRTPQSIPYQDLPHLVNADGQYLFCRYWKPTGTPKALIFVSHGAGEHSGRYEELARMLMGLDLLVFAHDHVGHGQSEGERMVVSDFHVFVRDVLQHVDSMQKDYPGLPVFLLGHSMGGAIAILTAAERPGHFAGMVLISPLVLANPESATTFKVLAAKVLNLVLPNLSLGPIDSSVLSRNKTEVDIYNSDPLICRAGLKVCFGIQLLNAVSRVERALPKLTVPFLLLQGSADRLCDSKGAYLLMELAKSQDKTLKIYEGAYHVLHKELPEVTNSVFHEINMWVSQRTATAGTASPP
Assay: Measurement of MAGL inhibitory activity (arachidonic acid production from 2-arachidonylglycerol, RapidFire-mass spectrometry)
Type: biochemical
Conditions: test compound 10 μM; MAGL inhibitory rate
Protocol: The His-hMAGL obtained above was diluted with enzyme reaction buffer (10 mM Tris-HCl, pH 7.5, 1 mM EDTA, 0.025 (w/v) % Triton X-100, 0.01% Bovine serum albumin) to a concentration of 7.5 ng/mL. To each well of a 384 well assay plate (Greiner 781280) was added a solution (5 μL) of a test compound dissolved in dimethyl sulfoxide (DMSO), which was diluted with the above-mentioned enzyme reaction buffer, then His-hMAGL solution (5 μL) diluted to a concentration of 7.5 ng/mL was added, and the mixture was incubated at room temperature for 60 min. Thereafter, to each well was added 5 μL of 150 μM 2-arachidonylglycerol (Tocris Bioscience), and the mixture was incubated at room temperature for 10 min. Then, 10 μL of 2% formic acid (Wako Pure Chemical Industries, Ltd.) was added to stop the reaction. Furthermore, acetonitrile (50 μL) containing 3 μM arachidonic acid-d8 (Cayman Chemical Company) was added and the mixture was stirred.
The amount of arachidonic acid in the obtained enzyme reaction mixture was calculated by measuring by RapidFire-mass spectrometry and correcting by the amount of arachidonic acid-d8. High Throughput online solid phase extraction was performed using RapidFire 300™ system (Agilent Technologies, Inc.). Samples were loaded on SPE C4 cartridge (Agilent Technologies, Inc.) and desalted with 0.2 (v/v) % acetic acid (Wako Pure Chemical Industries, Ltd.) in ultrapure water/acetonitrile (70/30, v/v) at a flow rate of 1.5 mL/min, eluted at a flow rate of 0.5 mL/min with 0.2 (v/v) % acetic acid dissolved in acetonitrile/ultrapure water (90/10, v/v), and injected into the mass spectrometry part. The injection needle was washed with ultrapure water (500 millisecond) and acetonitrile (500 millisecond) to minimize carry-over. The suction time (injection loop 5 μL), load/cleansing time, elution time and re-equilibration time were adjusted to 300, 3000, 4250 and 1000 milliseconds, respectively, and the total cycle time was adjusted to about 10.0 seconds. The RapidFire300 system was controlled by RapidFire UI software version 3.6 (Agilent Technologies, Inc.).
The mass spectrometry of the resultant product was performed using API4000™ triple quadrupole mass spectrometer (AB SCIEX) equipped with an electrospray ion sauce (TurboIon Spray™) in a negative selected reaction monitoring (SRM) mode. The conditions of SRM are shown below. The parameters of the instrument were optimized as follows: capillary temperature 600° C., ion spray voltage −4.5 kV, collision gas 8, curtain gas 15 psi, ion source gas 1 60 psi, ion source gas 2 60 psi. The mass spectrometer was controlled by Analyst™ software version 1.5.1 (AB SCIEX). The peak area integration was analyzed using RapidFire integrator software version 3.6 (Agilent Technologies, Inc.).
MAGL inhibitory rate (%) was calculated according to the following calculation formula. (1-(arachidonic acid production amount of test compound addition group−arachidonic acid production amount of enzyme-free group)+(arachidonic acid production amount of test compound-free group−arachidonic acid production amount of enzyme-free group))×100

SMILES | inhibition at 10 µM [%]
Cc1cc(CO[C@H]2C[C@@H](OC(=O)N3CC4(COC(=O)N4)C3)C2)ccc1Cl [Example 4, cis-3-((4-chloro-3-methylbenzyl)oxy)cyclobutyl 6-oxo-7-oxa-2,5-diazaspiro[3.4]octane-2-carboxylate] | 100
O=C1NC2(CO1)CN(C(=O)OC[C@H]1C[C@H](Oc3ccc(C(F)(F)F)cc3Cl)C1)C2 [Example 27, (trans-3-(2-chloro-4-(trifluoromethyl)phenoxy)cyclobutyl)methyl 6-oxo-7-oxa-2,5-diazaspiro[3.4]octane-2-carboxylate] | 100
O=C1NC2(CO1)CN(C(=O)OC[C@H]1C[C@@H](Oc3ccc(C(F)(F)F)cc3Cl)C1)C2 [Example 26, (cis-3-(2-chloro-4-(trifluoromethyl)phenoxy)cyclobutyl)methyl 6-oxo-7-oxa-2,5-diazaspiro[3.4]octane-2-carboxylate] | 100
Cc1cc(F)ccc1OC[C@H]1C[C@@H](OC(=O)N2CC3(COC(=O)N3)C2)C1 [Example 13, cis-3-((4-fluoro-2-methylphenoxy)methyl)cyclobutyl 6-oxo-7-oxa-2,5-diazaspiro[3.4]octane-2-carboxylate] | 102
Cc1ccc(CO[C@H]2C[C@@H](OC(=O)N3CC4(COC(=O)N4)C3)C2)c(F)c1F [Example 5, cis-3-((2,3-difluoro-4-methylbenzyl)oxy)cyclobutyl 6-oxo-7-oxa-2,5-diazaspiro[3.4]octane-2-carboxylate] | 99
O=C1NC2(CO1)CN(C(=O)O[C@H]1C[C@@H](COc3ccc(C(F)(F)F)cc3F)C1)C2 [Example 19, cis-3-((2-fluoro-4-(trifluoromethyl)phenoxy)methyl)cyclobutyl 6-oxo-7-oxa-2,5-diazaspiro[3.4]octane-2-carboxylate] | 98

Results, then the molecule that gave them:

inhibition at 10 µM [%] | SMILES
99 | O=C1NC2(CO1)CN(C(=O)O[C@H]1C[C@H](Oc3ccc(C(F)(F)F)cc3F)C1)C2 [Example 34, trans-3-(2-fluoro-4-(trifluoromethyl)phenoxy)cyclobutyl 6-oxo-7-oxa-2,5-diazaspiro[3.4]octane-2-carboxylate]
100 | O=C1NC2(CO1)CN(C(=O)O[C@H]1C[C@H](Oc3ccc(F)c(F)c3F)C1)C2 [Example 39, trans-3-(2,3,4-trifluorophenoxy)cyclobutyl 6-oxo-7-oxa-2,5-diazaspiro[3.4]octane-2-carboxylate]
100 | Cc1ccc(COC[C@H]2C[C@@H](OC(=O)N3CC4(COC(=O)N4)C3)C2)cc1Cl [Example 28, cis-3-(((3-chloro-4-methylbenzyl)oxy)methyl)cyclobutyl 6-oxo-7-oxa-2,5-diazaspiro[3.4]octane-2-carboxylate]
101 | O=C1NC2(CO1)CN(C(=O)O[C@H]1CC[C@H](Oc3ccc(C(F)(F)F)cc3F)CC1)C2 [Example 37, trans-4-(2-fluoro-4-(trifluoromethyl)phenoxy)cyclohexyl 6-oxo-7-oxa-2,5-diazaspiro[3.4]octane-2-carboxylate]
99 | O=C1NC2(CO1)CN(C(=O)O[C@H]1C[C@@H](OCc3ccc(F)c(F)c3)C1)C2 [Example 41, cis-3-((3,4-difluorobenzyl)oxy)cyclobutyl 6-oxo-7-oxa-2,5-diazaspiro[3.4]octane-2-carboxylate]
100 | O=C1NC2(CO1)CN(C(=O)O[C@H]1C[C@@H](Oc3ccc(Cl)cc3)C1)C2 [Example 47, cis-3-(4-chlorophenoxy)cyclobutyl 6-oxo-7-oxa-2,5-diazaspiro[3.4]octane-2-carboxylate]
100 | O=C1NC2(CO1)CN(C(=O)O[C@H]1C[C@@H](Oc3ccccc3Cl)C1)C2 [Example 52, cis-3-(2-chlorophenoxy)cyclobutyl 6-oxo-7-oxa-2,5-diazaspiro[3.4]octane-2-carboxylate]
100 | Cc1cc(F)ccc1O[C@H]1C[C@@H](OC(=O)N2CC3(COC(=O)N3)C2)C1 [Example 55, cis-3-(4-fluoro-2-methylphenoxy)cyclobutyl 6-oxo-7-oxa-2,5-diazaspiro[3.4]octane-2-carboxylate]
